Measurements from patent publication US12421257B2, “Compositions and methods for inhibiting group II intron RNA” (YALE UNIVERSITY, priority 2018, dated 2025).
Values after ≈ are worked out from the molar mass of the structure shown.

Columns and labels:
[1] = test system: C. parapsilosis; assay: MIC determination against C. parapsilosis; assay type: cell-based, Candida parapsilosis; settings: RPMI-1640, 35° C. or 37° C., turbidity after 24 and 48 hours; for MIC: Lodderomyces parapsilosis
Description: Minimal inhibitory concentrations (MICs) for C. parapsilosis were determined in a final volume of 100 μl. Fresh stock solutions of control antifungal drugs (Amphotericin B and Itraconazole) and of test compounds were prepared at 3.2 mg/ml and at 12.8 mg/ml respectively in DMSO. After placing the stock in the first well, solutions of test compounds and antifungal controls were serially diluted 1:2 with DMSO into the first […] successive wells of a 12-well row on a 96-well plate (as described above). After dilution, 2.5 μl from each of these 10 wells were transferred onto a separate 96-well plate and diluted with 122.5 μl of RPMI-1640 medium (Sigma). Wells 11 and 12 contained 2.5 μl DMSO and 122.5 μl of RPMI-1640 as a positive growth control (no compound) and sterility control (no inoculum added). A 50 μl volume was taken from each of the RPMI dilutions (wells 1-12) and transferred to the wells of a third 96-well plate (assay plate), where they were mixed with an equal volume (50 μl) of freshly prepared inoculum of C. parapsilosis in RPMI-1640 medium, set at a density to provide the 0.5×10^3 to 2.5×10^3 colony forming units per 1 mL (except for the sterility control). Sterility control was mixed with 50 μl of sterile medium.
The final concentration range of the assay was 0.25-128 μg/ml for test compounds and 0.0625-32 μg/ml for Amphotericin B and Itraconazole. The final concentration of DMSO was 1%. The assay plate was incubated at 35° C. or 37° C. and visually analyzed for turbidity after 24 and 48 hours of incubation. The lowest compound concentration at which no growth was apparent is reported as the MIC. All experiments were performed in triplicate.

[2] = test system: ai5γ group II intron (D135 ribozyme); assay: Fluorescent D135 ribozyme cleavage assay (IC50); assay type: biochemical, Saccharomyces cerevisiae; settings: for IC50: D135 ribozyme cleavage of substrate 17/2 DL, 100 mM MgCl2, 500 mM KCl, 37° C., 10 minutes; for In vitro inhibitory activity, SAR statement (in words): relative to parent scaffold
Description: The D135 ribozyme (Su et al., 2005, Nucleic Acids Res, 33:6674-6687), fluorescently labeled oligo substrate 17/2 DL (FIG. 1A-FIG. 1D) (both at 20 nM final concentrations in 50 mM MOPS, pH 7.0, 100 mM MgCl2, 0.5M KCl), and the test compounds (final concentration of 10 μM in 50 mM MOPS, pH 7.0, 100 mM MgCl2, 0.5M KCl) were aliquoted onto black non-binding 384-well plates (Corning 3757) using the multidrop combi (ThermoFisherScientific) and pintool (V & P Scientific). The reaction mixtures were incubated at 37° C. for 45 minutes, then the reaction was quenched with 100 mM EDTA and fluorescence intensity was analyzed on a Tecan Infinite multimode plate reader (λex 520 nm, λem 560 nm, 5 nm bandwidth). Data were normalized to untreated wells and wells lacking the D135 ribozyme, and percent of inhibition was calculated using ActivityBase (IDBS). The Z′-factor was calculated as described (Zhang et al., 1999, J Biomol Screen, 4:67-73): Z′=1−3×(σp+σn)/|μp−μn|, • where μp and σn are mean value and standard deviation for the positive control (substrate only), and where μn and σn are mean value and standard deviation for the negative control (no compound). The average Z′-factor from the screen was 0.83±0.03. IC50 Measurement for the Small Molecule Inhibition of the D135 Ribozyme Cleavage Reaction.
Black 96-well plates (Corning 3695) were filled with 50 μl of solution containing 20 nM D135 ribozyme, 20 nM double-labeled substrate 17/2 DL and small molecule inhibitor in 50 mM MOPS, pH 7.0, 100 mM MgCl2 and 500 mM KCl. Small molecule inhibitors were tested at 19 different concentrations ranging from 5 nM to 1 mM. Plates were incubated at 37° C. for 10 minutes, then reaction mixtures were quenched with 100 mM EDTA and analyzed on the Synergy H1 plate reader (BioTek). Each experiment was performed in triplicate. Data were fit to a 4-parameter logistic function c+(d−c)/(1+(x/a)^b), where a is the IC50, b is the slope parameter, c is the minimum response and d is the maximum response. Data are reported as average±s.e.m

[3] = test system: HEK-293T cells; assay: Cytotoxicity in HEK-293T cells (Cell Titer Glo); assay type: cell-based, human; settings: Homo sapiens, cytotoxicity, 24 hours with compound, read-out: IC50 HEK-293
Description: HEK-293T cells were cultured in Dulbecco's Modified Eagle's Medium (DMEM) (Gibco) supplemented with 10% Fetal Bovine Serum (FBS, Gibco) and 100 U/ml of Penicillin-Streptomycin (Gibco) at 37° C. and 5% CO2. For the cytotoxicity experiments, cells were aliquoted into black 96-well plates with a clear bottom (Corning 3603) at a concentration of 10,000 cells per well. The cells were grown at 37° C., 5% CO2 for 5-6 hours, then the medium was replaced with the same medium without FBS and cells were grown at 37° C., 5% CO2 for 24 hours. Freshly prepared stock solutions of test compounds (12.8 mg/ml in DMSO) were serially diluted 1:2 with DMSO into the first 11 successive wells of a 12-well row on a 96-well plate as described above. Well 12 was used as a growth control (no compound). […] After incubation, cell viability was determined using the luminescent Cell Titer Glo cell viability assay (Promega), in which 100 μl of the assay reagent was added to each well of the assay plate. After gentle shaking for 7-10 minutes, the plates were analyzed on a Synergy H1 plate reader (BioTek). Luminescence was plotted against the compound concentration and IC50 values were determined by fitting the data to a 4-parameter logistic function c+(d−c)/(1+(x/a)^b), where a is the IC50, b is the slope parameter, c is the minimum response and d is the maximum response. Experiments were replicated to ensure reproducibility.

[4] = target: ai5γ group II intron; assay: Radioanalytic self-splicing assay of SE RNA (Ki); assay type: biochemical, Saccharomyces cerevisiae; settings: 8 mM MgCl2, 100 mM KCl, pH 7.5, 30° C.
Description: Internally labeled SE RNA (2 nM) was incubated with various concentrations of inhibitor compound under near-physiological conditions (in 50 mM MOPS, pH 7.5, 8 mM MgCl2, 100 mM KCl) at 30° C. Aliquots at different time points were quenched and analyzed on 5% denaturing polyacrylamide gel as previously described (Daniels et al., 1996, Journal of molecular biology, 256:31-49). Data were fit to a single-exponential equation to determine the first order rate constants (kobs). The latter were then plotted against the concentration of the inhibitor and fit to the equation for non-competitive inhibition to determine Ki values: kobs=kmax/(1+[I]/Ki), where kobs and kmax are the first order rate constants measured in the presence and in the absence of the inhibitor, respectively, [I] is the concentration of the inhibitor and Ki is the inhibition constant. Experiments were performed four times for API-014, three times for APY-090, Intronistat A, and Intronistat B and twice for the remaining compounds to ensure reproducibility. Data represent average±s.e.m.

[5] = test system: S. cerevisiae; assay: Yeast respiration assay in S. cerevisiae (MIC in YPD / YPGE); assay type: cell-based, Saccharomyces cerevisiae; settings: 30° C.
Description: Yeast respiration assays were conducted either in liquid YPD media (BD Bacto Yeast Extract, BD Bacto Peptone, 2% glucose) or in YPGE media (BD Bacto Yeast Extract, BD Bacto Peptone, 3% glycerol, 3% ethanol), essentially as described for the antifungal MIC assays (see below). To initiate these experiments, 100 μl of a fresh stock solution was prepared for each compound (3.2 mg/ml for Amphotericin B and 12.8 mg/ml for each test compounds) in DMSO. This concentrated stock solution was placed in the first well of 12-well row on a 96-well plate. The subsequent nine wells in this row contained 50 μl of DMSO for serial dilution. From the first well, 50 μl of the compound stock was withdrawn, transferred to the second well and mixed. This process was repeated from the second and subsequent wells, resulting in a 1:2 serial dilution of the stock into DMSO. Wells 11 and 12 contained DMSO only, to be used as no compound control and sterility control, with no inoculum added, respectively. After preparing this plate, 2.5 μl from each of the 12 wells was transferred to the wells of a separate 96-well plate, each of which contained 122.5 μl of YPD or YPGE medium, resulting in a set of serial dilutions of compound into growth media in a volume of 125 μl. Then 50 μl from each of these dilutions were transferred onto a third 96-well plate (the assay plate) and mixed with an equal volume (50 μl) of freshly prepared yeast inoculum in YPD or YPGE medium set to provide 0.5×10^3 to 2.5×10^3 colony forming units per 1 mL (wells 1-11), or YPD/YPGE alone (sterility control, well 12). The final compound concentration range of the assay was 0.25-128 μg/ml for test compounds and 0.0625-32 μg/ml for Amphotericin B. The final concentration of DMSO was 1%. Plates were incubated at 30° C. and visually analyzed for turbidity after 24 and 48 hours of incubation. The lowest compound concentration at which no growth was apparent is reported as the MIC (Table 1). All experiments were performed in triplicate.

Row | SMILES | MIC [1] [µg/mL] | IC50 [2] [µM] | Ki [4] [µM] | MIC C. parapsilosis [1] [µg/mL] | MIC in YPD (glucose) ([5]; YPD medium) [µg/mL] | MIC in YPGE (glycerol) ([5]; YPGE medium) [µg/mL] | IC50 [3] [µg/mL] | In vitro inhibitory activity, SAR statement (in words) [2]
1 | O=C(CCc1ccc2ccccc2c1)c1cc(O)c(O)c(O)c1 [APY-076] | 16 (≈ 51.9 µM) | 8 | 5.4 |  |  |  | 7 | 
2 | COc1ccc(CNC(=O)c2cc(O)c(O)c(O)c2)cc1OC [APY-077, N-[(3,4-Dimethoxyphenyl)methyl]-3,4,5-trihydroxybenzamide] | 64 (≈ 200 µM) | 30 ± 4 | 44 ± 11 |  |  |  | > 32 | substantial loss of activity
3 | COc1ccc(CCNC(=O)c2cc(O)c(O)c(O)c2)cc1OC [APY-078] | 64 (≈ 192 µM) | 27 | 16 |  |  |  | > 128 | 
4 | C[C@H](NC(=O)c1cc(O)c(O)c(O)c1)c1cccc2ccccc12 [APY-079] | 32 (≈ 99 µM) | 20 | 32 |  |  |  | 4.6 | 
5 | O=C(c1cc(O)c(O)c(O)c1)c1cc2cc(Cl)cc(Cl)c2o1 [APY-083, 5-[(5,7-Dichloro-1-benzofuran-2-yl)carbonyl]benzene-1,2,3-triol] | 8 (≈ 23.6 µM) | 3.3 ± 0.3 | 0.9 ± 0.1 |  |  |  | 0.5 ± 0.1 | without significant loss of function
6 | C[C@@H]1[C@H](O)[C@@H](C)/C=C/C=C/C=C/C=C/C=C/C=C/C=C/[C@H](O[C@@H]2O[C@H](C)[C@@H](O)[C@H](N)[C@@H]2O)C[C@@H]2O[C@](O)(C[C@@H](O)C[C@@H](O)[C@H](O)CC[C@@H](O)C[C@@H](O)CC(=O)O[C@H]1C)C[C@H](O)[C@H]2C(=O)O [Amphotericin B, reference compound] |  |  |  | 0.5 to 1 | 2 (≈ 2.16 µM) | 16 (≈ 17.3 µM) |  | 
7 | COc1cccc(/C=N/NC(=O)c2cc(O)c(O)c(O)c2)c1O [Compound 2] | 32 (≈ 101 µM) | 7.3 | 8 |  |  |  | 34 | 
8 | CCN(CC)CCNC(=O)c1ccc2oc(C(=O)c3cc(O)c(O)c(O)c3)cc2c1 [NED-2019, N-(2-(diethylamino)ethyl)-2-(3,4,5-trihydroxybenzoyl)-benzofuran-5-carboxamide] | 8 (≈ 19.4 µM) | 4.8 ± 0.5 | 0.49 ± 0.03 |  |  |  | > 64 | 
9 | O=C(N/N=C/c1ccc(-c2ccc(Br)cc2)o1)c1cc(O)c(O)c(O)c1 [NED-2038, (E)-N′-((5-(4-bromophenyl)furan-2-yl)methylene)-3,4,5-trihydroxybenzohydrazide] | 32 (≈ 76.7 µM) | 2.7 ± 0.5 | 1.7 |  |  |  | 1.1 | 

Now from value to molecule, other results behind:

Row | MIC [1] [µg/mL] | IC50 [2] [µM] | Ki [4] [µM] | MIC C. parapsilosis [1] [µg/mL] | MIC in YPD (glucose) ([5]; YPD medium) [µg/mL] | MIC in YPGE (glycerol) ([5]; YPGE medium) [µg/mL] | SMILES | IC50 [3] [µg/mL] | In vitro inhibitory activity, SAR statement (in words) [2]
10 | 8 (≈ 18 µM) | 2.4 ± 0.4 | 4.5 ± 0.9 |  |  |  | CCN(CC)C(=O)c1ccc(-c2ccc3oc(C(=O)c4cc(O)c(O)c(O)c4)cc3c2)cc1 [APY-091, N,N-Diethyl-4-{2-[(3,4,5-trihydroxyphenyl)carbonyl]-1-benzofuran-5-yl}benzamide] | 5.35 ± 0.05 | 
11 | 8 (≈ 19.3 µM) | 2.8 ± 0.2 | 3.9 ± 0.5 |  |  |  | O=C(c1cc(O)c(O)c(O)c1)c1cc2cc(-c3ccc(C(F)(F)F)nc3)ccc2o1 [APY-097, 5-({5-[6-(Trifluoromethyl)pyridin-3-yl]-1-benzofuran-2-yl}carbonyl)benzene-1,2,3-triol] | 5.4 ± 0.6 | 
12 | > 128 | > 1000 | > 1000 |  |  |  | O=C(c1cc2cc(-c3ccc(CO)cc3)ccc2o1)c1ccc(B(O)O)cc1F [APY-098, [3-Fluoro-4-({5-[4-(hydroxymethyl)phenyl]-1-benzofuran-2-yl}carbonyl)phenyl]boronic acid] | 11 ± 3 | nearly complete loss of activity
13 | 16 (≈ 41.6 µM) | 9 ± 4 | 0.62 ± 0.03 |  |  |  | CN(C)CCNC(=O)c1ccc2oc(C(=O)c3cc(O)c(O)c(O)c3)cc2c1 [NED-2018, N-(2-(dimethylamino)ethyl)-2-(3,4,5-trihydroxybenzoyl)-benzofuran-5-carboxamide] | > 128 | 
